Patent US20120214830A1, “BIOLOGICAL MARKERS PREDICTIVE OF ANTI-CANCER RESPONSE TO INSULIN-LIKE GROWTH FACTOR-1 RECEPTOR KINASE INHIBITORS IN HEPATOCELLULAR CARCINOMA” (OSI Pharmaceuticals, LLC, priority 2011, published 2012)

Tests used:
Hep 3B = assay: Cell Titer-Glo proliferation assay, 72 h; type: cell-based; settings: Homo sapiens; Hep3B cells, erlotinib alone, determined beforehand; read-out: concentration to inhibit about 50% proliferation
Procedure: (§1) Two sensitive epithelial cell lines Hep3B (A), JHH-7 (B), one insensitive epithelial cell line JHH-1(C) or one insensitive mesenchymal-like cell line HLF (D) were treated serial dilution of OSI-906 in the presence of Erlotinib for 72 hours, and sensitivity to treatment was measured by proliferation assays.
(§2) Cell lines: Twenty-one HCC cell lines were purchased from either ATCC (HepG2, Hep3B, PLC/PRF/5, SK-Hepl, SNU-182, SNU-387, SNU-398, SNU-423, SNU-449, SNU-475) or Health Science Research Resources Bank (Japan) (HUH-1, HUH-6, HUH-7, HLE, HLF, JHH-1, JHH-2, JHH-4, JHH-5, JHH-6, JHH-7). All the cell lines were maintained in media as described by the vendors. For growth inhibition assays, cells were plated and allowed to proliferate for 24 hours. After 24 hours, cells had reached approximately 15% confluency, at which time serial dilutions of OSI-906 were added and the cells grown for a further 72 hours. Cell viability was assayed using the Cell Titer-Glo reagent (Promega Corp., Madison, Wis.).
(§3) Proliferation Assay. Proliferation was assayed using Cell Titer Glo assays (Promega) and was determined 72 hours following dosing with OSI-906. The basis of the assay is a luminescent quantitation of ATP present in a cell culture plate well. In essence, the greater the number of viable cells in the well, the greater the level of ATP present. The assay utilizes a substrate that binds ATP to produce a luminescent signal, which can be read on a luminometer. Unless otherwise noted, the manufacturer's instructions were followed exactly. Briefly, on Day 1, cells were plated in 120 μl of 10% serum-containing growth media at a density of 4000 cells/well in a white polystyrene 96 well assay plate. On day 2, cells were treated with 15 μl of 10× concentration of the IGF-1R inhibitor (e.g. OSI-906) or DMSO alone for a final well volume of 150 μl. After 72 h incubation with the inhibitor, the cells were assayed. Results were calculated as a fraction of the DMSO controlled cells.

JHH-1 = assay: Cell Titer-Glo proliferation assay, 72 h; type: cell-based; settings: Homo sapiens, JHH1; JHH-1 cells, erlotinib alone, determined beforehand; read-out: concentration to inhibit about 50% proliferation
Procedure: as §1, §2, §3

[1] = tested on: AFP expression in HUH-1, JHH-5 and HepG2 cells; assay: AFP expression by RT-PCR after TGFβ treatment; type: cell-based, human; settings: 10 ng/ml TGFβ for 10 days, HUH-1, JHH-5, HepG2
Procedure: FIG. 11: TGFβ decreases AFP expression and cell sensitivity to OSI-906. HUH-1, JHH-5 and HepG2 cells were treated with TGFβ and cells were either treated with OSI-906 for proliferation assays (A) or lysed to measure AFP expression by RT-PCR (B).
Taqman Assays: Total RNA was isolated with RNeasy kit (Qiagen) and treated with RNase-free DNase. Reverese transcription was performed with SuperScript III First-Strand Synthesis system (Invitrogen, Carlsbad, Calif.). The Gene Expression Assays were obtained from Applied Biosystems, Foster City, Calif. Quantitation of relative gene expression was conducted as described by the manufacturer using 50 ng of template. In order to determine relative expression across cell lines, amplification of AFP gene was compared to amplification of the gene for GAPDH as an internal standard.
(§4) TGFβ treatment: Cells were grown in medium supplemented with 10 ng/ml TGFβ (EMD Biosciences #616450) for 10 days with replating every 3-4 days. The cells were then lysed for either RT-PCR or CELLTITER-GLO® proliferation assays (Promega, Madison, Wis.).

[2] = tested on: ErbB3 in JHH5, HepG2, and HUH1 HCC cells; assay: ErbB3 protein expression after TGFβ treatment; type: cell-based, human; settings: data not shown
Procedure: Preparation of Protein Lysates and Western Blotting: Cells were rinsed with PBS and lysed in RIPA buffer (Sigma #R0278) containing protease and phosphatase inhibitor cocktails (Sigma #P2850, P8340, P5726). Cell lysates were cleared by centrifugation and subjected to western blotting. Antibodies included: E-cadherin (Santa Cruz #sc21791), ErbB3 (Santa Cruz #sc285), vimentin (BD Pharmingen #550513), Zebl (Santa Cruz #sc25388).
as §4

With C#Cc1cccc(Nc2ncnc3cc(OCCOC)c(OCCOC)cc23)c1 [Erlotinib, [6,7-bis(2-methoxyethoxy)-4-quinazolin-4-yl]-(3-ethynylphenyl) amine, reference compound] the IC50 (Hep 3B) was 3.3 µM and the IC50 (JHH-1) was 0.12 µM.
For TGFβ, the “AFP expression after TGFβ treatment” value [1] was “decreased” and the “expression of the epithelial biomarker protein ErbB3 after TGFβ treatment” value [2] was “decreased”.
